Measurements taken from patent publication US20250026733A1, “DEUTERATED ANALOGS OF PYROLE INHIBITORS OF ERK, SYNTHESIS THEREOF AND INTERMEDIATES THERETO” (BIOMED VALLEY DISCOVERIES, INC., priority 2022, published 2025).

How the values were obtained:
[1] = test system: A375 cells; assay: A375 proliferation assay (Cell TiterGlo); assay type: cell-based; conditions: Homo sapiens, A-375, 72 hours
Procedure: Mechanism of Action (MOA) Cell Assay—A375 Cell Proliferation, pERK/ERK and pRSK/RSK Analysis:
Briefly, A375 cells were plated at 10,000 cells/well in three 96 well plates. Plates were incubated overnight at 37° C. and allowed to recover. Cells were washed with 150 μL of DPBS and 90 μL of fresh media was added to each well. The cells were then treated with a dose response of the selected compounds. Compounds were diluted from stock concentrations (10 mM in DMSO). Serial dilutions were made in DMSO, yielding 8 total different concentrations per compound. At time of compound addition, the control plate was analyzed using Cell TiterGlo to set baseline for proliferation. Compound treated cells were allowed to grow at 37° C./5% CO2 for 72 hours then analyzed using Cell TiterGlo according to kit protocol.

[2] = test system: phospho-ERK1/2 to total ERK1/2 in A375 cells; assay: A375 pERK/ERK dose response study (MSD); assay type: cell-based; conditions: Homo sapiens, A-375, ratio of phospho-ERK1/2 to total ERK1/2
Procedure: A375 pERK/ERK Dose Response Study:
Briefly, A375 cells were plated at 30,000 cells/well in 2×96 well plates, allowed to recover overnight, washed and fed fresh media the next day then treated with a dose response of the selected compounds. Following the determined pretreatment time with the compounds at 37° C./5% CO2, the media was aspirated, and cells lysed with cold, complete MESO Scale Discovery (MSD) lysis buffer. pERK and total ERK1/2 levels were measured using MESO Scale Discover Phospho(Thr202/Tyr204; Thr185/Tyr187)/Total ERK1/2 kits. The protocol and all reagents were provided in the kit. All wells were blocked with 150 μl Blocking Solution for one hour. […] of lysis buffer was added per well and incubated overnight at 4° C. Following the overnight incubation, the wells were washed three times with Tris Wash buffer, then […] of 1× Detection Antibody was added per well and incubated at room temperature for one hour with vigorous shaking. All wells were then washed three times with Tris Wash Buffer before 150 μl of 1× Read Buffer was added per well and the plates read using the MSD Sector Imager. Data were calculated as a ratio of phospho-ERK1/2 to total ERK1/2 to allow for normalization of the samples.

[3] = Steady-state exposure of ulixertinib and metabolites in human subjects; assay type: in vivo
From the text: (§1) The steady state exposure levels of non-isotopically enriched parent ulixertinib and related metabolites in rat (day 5) and human subjects (day 15) is provided in TABLE 1 below: […]

[4] = Steady-state exposure of ulixertinib and metabolites in rat; assay type: in vivo
From the text: as §1

IC50 [1] [nM]	IC50 [2] [nM]	% of total Ulixertinib related exposure ([3]; day 15, steady state) [%]	AUC at 15 day ([3]; in vivo, day 15, non-isotopically enriched ulixertinib and related metabolites, read-out: Steady-State AUC (Mean ± SD)) [µg·h/mL]	% of total Ulixertinib related exposure ([4]; day 5, steady state) [%]	AUC at 5 day ([4]; in vivo, day 5, non-isotopically enriched ulixertinib and related metabolites, read-out: Steady-State AUC (Mean ± SD)) [µg·h/mL]	SMILES
300	70	–	–	–	–	[2H]C([2H])([2H])C([2H])(Nc1cc(-c2c[nH]c(C(=O)N[C@H](CO)c3cccc(Cl)c3)c2)c(Cl)cn1)C([2H])([2H])[2H] [Formula 18, 4-(5-chloro-2-((propan-2-yl-d7)amino)pyridin-4-yl)-N-(1-(3-chlorophenyl)-2-hydroxyethyl)-1H-pyrrole-2-carboxamide]
250	58	37.5	29.6 ± 16.1	91.1	179 ± 49	CC(C)Nc1cc(-c2c[nH]c(C(=O)N[C@H](CO)c3cccc(Cl)c3)c2)c(Cl)cn1 [Ulixertinib, reference compound]
